Tests used:
Format in all cases: cell-based
[1] = test system: human colon cancer cell line HT 29; experiment: Growth inhibition assay (MTT), HT 29; conditions: Table VI, 6 days incubation
Protocol: (§1) As another example of evaluation of cytotoxicity, cancer cell lines were also used for a growth inhibition assay. The human colon cancer cell lines SW 480 and HT 29 and the murine melanoma cell line B16F10 were used. […] After confluent growth, the cells were trypsinated and resuspended in RPMI plus 10% FCS to a cell concentration of 50000 cells per ml in case of colon cancer cell lines and 20000 in case of B16F10. 100 μl of this cell suspension were transferred in each well of a 96 well microtiter plate and incubated for 1 day at 37° C. in a CO2-incubator. Subsequently, further 100 μl RPMI medium and 1 μl of a DMSO solution, containing the artemisinin derivatives were added. The growth inhibition was estimated after 6 days incubation at 36° C. using the MTT assay.
(§2) 25 μl MTT solution (3-(4,5-dimethylthiazol-2-yl)-2,5-diphenyltetrazolium-bromid) of a starting concentration of 5 mg/ml H2O were added and incubated at 37° C. for 5 h. Subsequently, 100 μl iso-propanol per well were added. After 15 min incubation 100 μl H2O were added. After 30 min shaking, the extinction was measured at 595 nm using a ELISA-Multiplate Reader.

[2] = test system: Rat 6 subclone of the immortalized F2408 embryo cell line (R6); experiment: Screening for cytotoxicity, cell count by Coulter Counter, R6 cells; conditions: for LD50 (Day 3) R6: day 3 after addition; for LD50 (Day 6) R6: day 6 after addition
Protocol: (§3) Compounds of the invention were screened against Rat 6 subclone of the immortalized F2408 embryo cell line, and Rat 6 (R6T24) cells transfected and transformed by a c-H-ras oncogene. The screening involved placing the R6 and R6T24 cell lines plated at 10^3 cells per well into a 12-well microtiter culture plate for 24 hours. The compounds were added at final concentrations from 0.1-100 μM, and cells were trypsized and counted by Coulter Counter at day 3 and day 6 after the addition. Untreated cells were assigned a survival value of 100%.

[3] = test system: Rat 6 (R6T24) cells transfected and transformed by a c-H-ras oncogene; experiment: Screening for cytotoxicity, cell count by Coulter Counter, R6T24 cells; conditions: R6T24 cell line; for LD50 (Day 3) R6T24: day 3 after addition; for LD50 (Day 6) R6T24: day 6 after addition
Protocol: as §3

[4] = test system: murine melanoma cell line B16F10; experiment: Growth inhibition assay (MTT), B16F10; conditions: Table VI, 6 days incubation
Protocol: as §1, §2

[5] = test system: human colon cancer cell line SW 480; experiment: Growth inhibition assay (MTT), SW 480; conditions: Table VI, 6 days incubation
Protocol: as §1, §2

[6] = test system: DNA within the cell; experiment: DNA comet assay; conditions: cells after 3 or 6 day treatment
Source text: In this technique, cells are embedded in agarose gel on a frosted slide after 3 or 6 day treatment, the cells are then lysed and submitted to electrophoresis. The DNA was stained after electrophoresis by ethidium bromide and images of the DNA “comets” were obtained by using an image analysis software package.

| Compound | LD50 HT 29 [1] | LD50 (Day 3) R6 ([2]; Table V) | LD50 (Day 6) R6 ([2]; Table V) | LD50 (Day 3) R6 ([2]; Table VA) | LD50 (Day 6) R6 ([2]; Table VA) | LD50 (Day 3) R6T24 ([3]; Table V) | LD50 (Day 6) R6T24 ([3]; Table V) | LD50 (Day 3) R6T24 ([3]; Table VA) | LD50 (Day 6) R6T24 ([3]; Table VA) | LD50 B16F18 [4] | LD50 SW 480 [5] | DNA damage in the DNA comet assay [6] |
| --- | --- | --- | --- | --- | --- | --- | --- | --- | --- | --- | --- | --- |
| CC1CCC2C(C)C(c3ccccc3)OC3OC4(C)CCC1C32OO4 (stereo not drawn) [Example 2, 10β-(phenyl)dihydroartemisinin] | 800 nM | 0.61 µM | 0.475 µM | 0.61 µM | 0.475 µM | 3.05 µM | 0.54 µM | 3.05 µM | 0.54 µM | 500 nM | 300 nM |  |
| C[C@@H]1CC[C@H]2[C@@H](C)C(NCc3ccccc3)O[C@@H]3O[C@@]4(C)CC[C@@H]1[C@]32OO4 (stereo partly drawn) [Example 36] | 400 nM |  |  |  |  |  |  |  |  | 50 nM | 60 nM |  |
| 10α and β-[(2′-naphthylmethyl)oxy]dihydroartemisinin [Example 13] |  | 0.14 µM | 0.037 µM |  |  | 0.12 µM | 0.02 µM |  |  |  |  | strong DNA damage |
| CC1CCC2C(CN3CCc4ccccc43)C(=O)OC3OC4(C)CCC1C32OO4 (stereo not drawn) [Example 22, 16-(N-1′-indolinyl)artemisinin] |  | 24.77 µM | 29.24 µM | 25 µM | 29 µM | 11.38 µM | 7.45 µM | 12 µM | 7.5 µM |  |  | strong DNA damage |
| CC1CCC2C(C)C(OCc3ccc(F)cc3)OC3OC4(C)CCC1C32OO4 (stereo not drawn) [Example 79] | 1500 nM |  |  |  |  |  |  |  |  | 200 nM | 200 nM |  |
| CC1CCC2C(C)C(OCC(F)(F)F)OC3OC4(C)CCC1C32OO4 (stereo not drawn) [Example 11, 10β-[(2′,2′,2′-trifluoroethyl)oxy]-dihydroartemisinin] | 1500 nM | 1.56 µM | 0.87 µM | 1.56 µM | 0.87 µM | 3.31 µM | 0.39 µM | 3.31 µM | 0.39 µM | 500 nM | 500 nM |  |
| 10α and β-[(2′-naphthylmethyl)oxy]dihydroartemisinin [Example 13α] | 500 nM |  |  | 0.14 µM | 0.037 µM |  |  | 0.12 µM | 0.02 µM | 300 nM | 200 nM |  |
| C[C@@H]1CC[C@H]2[C@@H](C)C(Nc3ccccc3)O[C@@H]3O[C@@]4(C)CC[C@@H]1[C@]32OO4 (stereo partly drawn) [Example 30] | 600 nM | 0.31 µM | 0.26 µM | 0.31 µM | 0.26 µM | 0.24 µM | 0.26 µM | 0.24 µM | 0.26 µM | 400 nM | 100 nM |  |
| C[C@@H]1CC[C@H]2[C@@H](C)C(Nc3ccc(I)cc3)O[C@@H]3O[C@@]4(C)CC[C@@H]1[C@]32OO4 (stereo partly drawn) [Example 34] | 500 nM |  |  |  |  |  |  |  |  | 150 nM | 100 nM |  |
